Measured values taken from patent US7473790B2 (Pfizer Inc., priority 2003, dated 2009).

Target: T1, HCV polymerase (Hepatitis C virus genotype 1b, UniProt P26663)
T1 construct: 2.5 pmoles (0.15 μg) HCV polymerase protein in a final volume of 75 μL
Assay: HCV polymerase primer/template-directed transcription assay (32P-GTP incorporation, filter binding)
Type: biochemical
Settings: recombinant HCV polymerase; 30 minutes at 30° C.; concentration giving 50% inhibition of polymerase-directed transcription; read-out: IC50
In short: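 IC50s come from triplicate cpm, refit with an enzyme-concentration (30 nM) correction when under 200 nM. Reactions ran 30 min at 30° C in Tris pH 7.2 with MgCl2, 1 μM GTP spiked with α-32P-GTP, biotin-dG12 primer and poly(rC)300 template, with 1% DMSO. Incorporated label was collected on DE filtermats and counted.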

T1 sequence (P26663 2420-3010): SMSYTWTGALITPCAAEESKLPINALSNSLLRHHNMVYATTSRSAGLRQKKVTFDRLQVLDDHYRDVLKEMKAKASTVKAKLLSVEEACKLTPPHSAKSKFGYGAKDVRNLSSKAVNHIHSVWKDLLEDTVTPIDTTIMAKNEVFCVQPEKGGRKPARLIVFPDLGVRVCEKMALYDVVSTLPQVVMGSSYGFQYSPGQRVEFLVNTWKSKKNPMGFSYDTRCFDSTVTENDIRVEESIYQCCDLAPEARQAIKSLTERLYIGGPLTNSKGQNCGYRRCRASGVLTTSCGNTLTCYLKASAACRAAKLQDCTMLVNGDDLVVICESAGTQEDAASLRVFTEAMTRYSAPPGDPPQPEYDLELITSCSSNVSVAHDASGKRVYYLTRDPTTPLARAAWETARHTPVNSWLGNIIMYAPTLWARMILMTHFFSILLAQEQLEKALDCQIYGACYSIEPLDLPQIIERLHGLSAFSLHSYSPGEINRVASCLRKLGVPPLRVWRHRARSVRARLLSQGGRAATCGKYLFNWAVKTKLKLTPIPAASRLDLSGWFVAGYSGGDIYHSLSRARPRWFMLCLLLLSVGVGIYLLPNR

`COc1cc(OC)c(CCC2(C3CCCC3)CC(O)=C(Sc3ncc(-c4cccnc4)[nH]3)C(=O)O2)cc1Cl` (stereo not drawn) [C(77), 6-[2-(5-chloro-2,4-dimethoxyphenyl)ethyl]-6-6cyclopentyl-4-hydroxy-3-[(5-pyridin-3-yl-1H-imidazol-2-yl)thio]-5,6-2H-pyran-2-one] and `COc1cc(OC)c(CCC2(C3CCCC3)CC(O)=C(Sc3nnc(-c4cccnc4)[nH]3)C(=O)O2)cc1Cl` (stereo not drawn) [C(75), 6-[2-(5-chloro-2,4-dimethoxyphenyl)ethyl]-6-cyclopentyl-4-hydroxy-3-[(5-pyridin-3-yl-4H-1,2,4-triazol-3-yl)thio]-5,6-dihydro-2H-pyran-2-one] are within 1.5-fold of each other in IC50: 62 nM for the first, 44 nM for the second.

First: N#CC1(c2ccc(CCC3(C4CCCC4)CC(=O)CC(=O)O3)cc2F)CCCC1 (stereo not drawn) [A(189), 1-{4-[2-(2-Cyclopentyl-4,6-dioxo-tetrahydro-pyran-2-yl)-ethyl]-2-fluoro-phenyl}-cyclopentanecarbonitrile]
Second: CN(c1ccc(CCC2(C3CCCC3)CC(=O)CC(=O)O2)cc1F)S(C)(=O)=O (stereo not drawn) [A(132), 6-cyclopentyl-6-[2-(3-fluoro-4-{methyl[methyl(dimethylene)-6-sulfanyl]amino}phenyl)ethyl]dihydro-2H-pyran-2,4(3H)-dione]
The IC50 of the first is 4.5-fold lower: 2900 nM for the first, 13000 nM for the second. The first is the more potent here.

Compared with `COc1ccc(CCC2(C3CCCC3)CC(O)=C(Sc3nc4cc(F)ccc4[nH]3)C(=O)O2)cc1Cl` (stereo not drawn) [C(52), 6-[2-(3-chloro-4-methoxyphenyl)ethyl]-6-cyclopentyl-3-[(5-fluoro-1H-benzimidazol-2-yl)thio]-4-hydroxy-5,6-dihydro-2H-pyran-2-one], `COc1ccc(CCC2(C3CCCC3)CC(O)=C(Sc3nc4cccnc4s3)C(=O)O2)cc1Cl` (stereo not drawn) [C(47), 6-[2-(3-chloro-4-methoxyphenyl)ethyl]-6-cyclopentyl-4-hydroxy-3-([1,3]thiazolo[5,4-b]pyridin-2-ylthio)-5,6-dihydro-2H-pyran-2-one] is 1.7-fold higher in IC50: 140 nM for the first, 240 nM for the second. The first is the more potent here.

`CCOc1ccc(CCC2(C3CCCC3)CC(O)=C(Cc3nc4nc(C)cc(C)n4n3)C(=O)O2)cc1F` (stereo not drawn) [B(02), 6-Cyclopentyl-3-(5,7-dimethyl-[1,2,4]triazolo[1,5-a]pyrimidin-2-ylmethyl)-6-[2-(4-ethoxy-3-fluoro-phenyl)-ethyl]-4-hydroxy-5,6-dihydro-pyran-2-one] and `CCc1cccc(CCC2(C3CCCC3)CC(O)=C(Cc3nc4nc(C)cc(C)n4n3)C(=O)O2)c1` (stereo not drawn) [B(12), 6-Cyclopentyl-3-(5,7-dimethyl-[1,2,4]triazolo[1,5]pyrimidin-2-ylmethyl)-6-[2-(3-ethyl-phenyl)-ethyl]-4-hydroxy-5,6-dihydro-pyran-2-one] are within 1.5-fold of each other in IC50: 27 nM for the first, 26 nM for the second.

Going from `Cc1nc[nH]c1CC1C(=O)CC(CCc2ccc(C(C)(C)C#N)c(F)c2)(C2CCCC2)OC1=O` (stereo not drawn) [A(107), 2-(4-{2-[2-Cyclopentyl-5-(5-methyl-3H-imidazol-4-ylmethyl)-4,6-dioxo-tetrahydro-pyran-2-yl]-ethyl}-2-fluoro-phenyl)-2-methyl-propionitrile] to `Cc1ccc(-c2ccc(CCC3(C4CCCC4)CC(=O)CC(=O)O3)cc2F)s1` (stereo not drawn) [A(12), 6-Cyclopentyl-6-{2-[3-fluoro-4-(5-methyl-thiophen-2-yl)-phenyl]-ethyl}-dihydro-pyran-2,4-dione], the IC50 rises from 360 nM to 18300 nM (51-fold).

Going from `O=C1CC(=O)OC(CCc2cccc(Cc3nccs3)c2)(C2CCCC2)C1` (stereo not drawn) [A(78), 6-Cyclopentyl-6-[2-(3-thiazol-2-ylmethyl-phenyl)-ethyl]-dihydro-pyran-2,4-dione] to `N#CCc1cccc(CCC2(C3CCCC3)CC(=O)CC(=O)O2)c1` (stereo not drawn) [A(70), {3-[2-(2-Cyclopentyl-4,6-dioxo-tetrahydro-pyran-2-yl)-ethyl]-phenyl}-acetonitrile], the IC50 falls from 21000 nM to 9400 nM (2.2-fold). The second is the more potent here.

Compared with `Cc1cnc2nc(CC3=C(O)CC(CCc4ccc(C(C)(C)O)c(F)c4)(C4CCCC4)OC3=O)nn2c1` (stereo not drawn) [A(216)], `CCc1cc(CCC2(C3CCCC3)CC(O)=C(Cc3nc4ncc(C)cn4n3)C(=O)O2)ccc1O` (stereo not drawn) [A(126), 6-Cyclopentyl-6-[2-(3-ethyl-4-hydroxy-phenyl)-ethyl]-4-hydroxy-3-(6-methyl-[1,2,4]triazolo[1,5-a]pyrimidin-2-ylmethyl)-5,6-dihydro-pyran-2-one] is 5-fold lower in IC50: 45 nM for the first, 9 nM for the second. The second is the more potent here.

First: CCc1cc(CCC2(C3CCCC3)CC(O)=C(Cc3nc4ncc(Cl)cn4n3)C(=O)O2)ccc1O (racemic) [A(272), 3-(6-Chloro-[1,2,4]triazolo[1,5-a]pyrimidin-2-ylmethyl)-6-cyclopentyl-6-[2-(3-ethyl-4-hydroxy-phenyl)-ethyl]-4-hydroxy-5,6-dihydro-pyran-2-one]
Second: CCc1cc(CCC2(C3CCCC3)CC(O)=C(Cc3nc4ncccn4n3)C(=O)O2)cc(CC)c1O (stereo not drawn) [A(234), 6-cyclopentyl-6-[2-(3,5-diethyl-4-hydroxyphenyl)ethyl]-4-hydroxy-3-([1,2,4]triazolo[1,5-a]pyrimidin-2-ylmethyl)-5,6-dihydro-2H-pyran-2-one]
The IC50 of the first is 1.8-fold lower: 6 nM for the first, 11 nM for the second. The first is the more potent here.

First: Cc1cc(C)n2nc(CC3=C(O)CC(CCc4ccc(N(C)S(C)(=O)=O)cc4)(C4CCCC4)OC3=O)nc2n1 (stereo not drawn) [A(133), 6-cyclopentyl-3-[(5,7-dimethyl[1,2,4]triazolo[1,5-a]pyrimidin-2-yl)methyl]-4-hydroxy-6-[2-(4-{methyl[methyl(dimethylene)-I^6-sulfanyl]amino}phenyl)ethyl]-5,6-dihydro-2H-pyran-2-one]
Second: CCc1ccc(O)c(CCC2(C3CCCC3)CC(O)=C(Cc3nc4nc(C)cc(C)n4n3)C(=O)O2)c1 (single isomer, unassigned; enantiomer 2) [A(168), Enantiomer 2 of 6-Cyclopentyl-3-(5,7-dimethyl-[1,2,4]triazolo[1,5-a]pyrimidin-2-ylmethyl)-6-[2-(5-ethyl-2-hydroxy-phenyl)-ethyl]-4-hydroxy-5,6-dihydro-pyran-2-one]
The IC50 of the first is 8-fold higher: 72 nM for the first, 9 nM for the second. The second is the more potent here.

Going from `COc1ccc(CCC2(C3CCCC3)CC(O)=C(Sc3ncnc4ccccc34)C(=O)O2)cc1Cl` (stereo not drawn) [C(68), 6-[2-(3-chloro-4-methoxyphenyl)ethyl]-6-cyclopentyl-4-hydroxy-3-(quinazolin-4-ylthio)-5,6-dihydro-2H-pyran-2-one] to `COc1ccc(CCC2(C3CCCC3)CC(O)=C(Sc3nnc(CN(C)C)n3C)C(=O)O2)cc1Cl` (stereo not drawn) [C(97), 6-[2-(3-chloro-4-methoxyphenyl)ethyl]-6-cyclopentyl-3-({5-[(dimethylamino)methyl]-4-methyl-4H-1,2,4-triazol-3-yl}thio)-4-hydroxy-5,6-dihydro-2H-pyran-2-one], the IC50 falls from 200 nM to 120 nM (1.7-fold).

First: COc1cc(OC)c(CCC2(C3CCCC3)CC(O)=C(Cc3cc(=O)n4c(C)csc4n3)C(=O)O2)cc1Cl (stereo not drawn) [B(59), 7-({6-[2-(5-Chloro-2,4-dimethoxyphenyl)ethyl]-6-cyclopentyl-4-hydroxy-2-oxo-5,6-dihydro-2H-pyran-3-yl}methyl)-3-methyl-5H-[1,3]thiazolo[3,2-a]pyrimidin-5-one]
Second: COc1cc(OC)c(CCC2(C3CCCC3)CC(O)=C(Cc3nc(C)nn3C)C(=O)O2)cc1Cl (stereo not drawn) [B(71), 6-[2-(5-Chloro-2,4-dimethoxyphenyl)ethyl]-6-cyclopentyl-3-[(1,3-dimethyl-1H-1,2,4-triazol-5-yl)methyl]-4-hydroxy-5,6-dihydro-2H-pyran-2-one]
The IC50 of the first is 13-fold lower: 6 nM for the first, 80 nM for the second. The first is the more potent here.

First: O=C1OC(CCC2=CCCCC2)(C2CCCC2)CC(O)=C1Sc1nnc(-c2ccncc2)[nH]1 (stereo not drawn) [C(04), 6-(2-Cyclohex-1-enyl-ethyl)-6-cyclopentyl-4-hydroxy-3-(5-pyridin-4-yl-4H-[1,2,4]triazol-3-ylsulfanyl)-5,6-dihydro-pyran-2-one]
Second: CC(C)Oc1ccc(CCC2(C3CCCC3)CC(O)=C(Sc3nc4cc(Cl)ccc4n3C(C)C)C(=O)O2)cc1Cl (stereo not drawn) [C(25), 6-[2-(3-Chloro-4-isopropoxy-phenyl)-ethyl]-3-(5-chloro-1-isopropyl-1H-benzoimidazol-2-ylsulfanyl)-6-cyclopentyl-4-hydroxy-5,6-dihydro-pyran-2-one]
The IC50 of the first is 90-fold higher: 1800 nM for the first, 20 nM for the second. The second is the more potent here.

Compared with `CCc1cnc2nc(CC3=C(O)CC(CCc4cc(F)c(C(C)(C)C#N)c(F)c4)(C4CCCC4)OC3=O)nn2c1` (stereo not drawn) [A(252), 2-(4-{2-[2-Cyclopentyl-5-(6-ethyl-[1,2,4]triazolo[1,5-a]pyrimidin-2-ylmethyl)-4-hydroxy-6-oxo-3,6-dihydro-2H-pyran-2-yl]-ethyl}-2,6-difluoro-phenyl)-2-methyl-propionitrile], `COc1ccc(CCC2(C3CCCC3)CC(O)=C(Cc3nc4nc(C)cc(C)n4n3)C(=O)O2)c(F)c1` (stereo not drawn) [B(103), 6-Cyclopentyl-3-(5,7-dimethyl-[1,2,4]triazolo[1,5-a]pyrimidin-2-ylmethyl)-6-[2-(2-fluoro-4-methoxy-phenyl)-ethyl]-4-hydroxy-5,6-dihydro-pyran-2-one] is 11-fold higher in IC50: 10 nM for the first, 107 nM for the second. The first is the more potent here.

First: COc1ccc(CCC2(C3CCCC3)CC(O)=C(Cc3nc4cc(OC)c(OC)cc4c(=O)[nH]3)C(=O)O2)cc1Cl (stereo not drawn) [B(57), 2-({6-[2-(3-chloro-4-methoxyphenyl)ethyl]-6-cyclopentyl-4-hydroxy-2-oxo-5,6-dihydro-2H-pyran-3-yl}methyl)-6,7-dimethoxyquinazolin-4(3H)-one]
Second: COc1ccc(CCC2(C3CCCC3)CC(O)=C(Cc3nn(C)cc3Cl)C(=O)O2)cc1Cl (stereo not drawn) [B(29), 6-[2-(3-Chloro-4-methoxy-phenyl)-ethyl]-3-(4-chloro-1-methyl-1H-pyrazol-3-ylmethyl)-6-cyclopentyl-4-hydroxy-5,6-dihydro-pyran-2-one]
The IC50 of the first is 4.4-fold lower: 50 nM for the first, 220 nM for the second. The first is the more potent here.

Going from `CC1(c2ccc(CCC3(C4CCCC4)CC(=O)CC(=O)O3)cc2Cl)OCCO1` (stereo not drawn) [B(123), 6-{2-[3-Chloro-4-(2-methyl-[1,3]dioxolan-2-yl)-phenyl]-ethyl}-6-cyclopentyl-dihydro-pyran-2,4-dione] to `CCc1cc(CC)n2nc(CC3C(=O)CC(CCc4ccc(O)c(CC)c4)(C4CCCC4)OC3=O)nc2n1` (stereo not drawn) [A(138), 6-cyclopentyl-3-[(5,7-diethyl[1,2,4]triazolo[1,5-a]pyrimidin-2-yl)methyl]-6-[2-(3-ethyl-4-hydroxyphenyl)ethyl]-4-hydroxy-5,6-dihydro-2H-pyran-2-one], the IC50 falls from 580 nM to 8 nM (72-fold). The second is the more potent here.
